Tests used:
participants with SSc-RP [1] = assay: SHAQ - Visual Analog Scale - Raynaud's; format: in vivo, human
Source text: The SHAQ includes a Raynaud's VAS, which will be reported at screening and each in-clinic visit. The absolute change in Raynaud-VAS, assessed by the participants response to the SHAQ question ‘In the past 7 days, how much have your Raynaud's interfered with your daily activities?’ at baseline and the end of each dosing period will be calculated similar to frequency data as before.
The standard, validated, patient reported outcome measures tool for SSc patients, the SHAQ, was collected at the time points specified in the study schedules (FIG. 2 and FIGS. 4A and 4B) to assess the participant's quality of life. The SHAQ included a Raynaud's VAS that will also be reported separately.

participants with SSc-RP [2] = format: in vivo; details: tadalafil monotherapy group
Source text: Treatment-emergent AEs (TEAEs) are defined as AEs that occur or worsen after the dose of study drug. If the timing of the start of an AE could not be determined unambiguously from the start or end dates provided, it will be assumed to be a TEAE. An AE is considered related if the relationship to either of the study drug has been indicated as possibly or probably or definite related by the investigator. An AE leading to study withdrawal is defined as an AE that cause a subject early terminated from the study. AEs will be identified as emerging in the following parts: • TEAEs for Part A will be those that started during Part A (i.e., from the first dose in Part A to end of follow up of Part A) • TEAEs for Part B will be those that started during Part B (i.e., from the first dose in Part B to end of follow-up of Part B).
In this study, AEs and SAEs were reported for all participants from the time of randomization until the completion of the Follow-up/EOS visit. Adverse events that were ongoing at the EOS visit were marked as Not Recovered/Not resolved on the AE eCRF page (see Section 9.4.4). The Investigator did full AE review during in-clinic visit. All spontaneously volunteered and enquired for, as well as observed AEs, were recorded in the participant's medical records and the eCRF.
Severity of AEs were graded by the Investigator as one of: • Mild (Grade 1): A type of AE that is usually transient and may require only minimal treatment or therapeutic intervention.

CN1CC(=O)N2[C@H](c3ccc4c(c3)OCO4)c3[nH]c4ccccc4c3C[C@@H]2C1=O [Tadalafil] was tested, and the “SHAQ Visual Analogue Scale - Raynaud's, Change from Baseline, Median” value (participants with SSc-RP [1]; Tadalafil 5 mg (N = 5), Day 12, PP Population, Part A) was −0.500, the “VAS Raynaud's Change from Baseline Max” value (participants with SSc-RP [1]; tadalafil 5 mg) was −0.10 and the “VAS Raynaud's Change from Baseline Mean” value (participants with SSc-RP [1]; tadalafil 5 mg) was −0.825. For the same compound, the “VAS Raynaud's Change from Baseline Median” value (participants with SSc-RP [1]; tadalafil 5 mg) was −0.500, the “VAS Raynaud's Change from Baseline Min” value (participants with SSc-RP [1]; tadalafil 5 mg) was −2.20 and the “VAS Raynaud's Change from Baseline Q1” value (participants with SSc-RP [1]; tadalafil 5 mg) was −1.500. For the same compound, the “VAS Raynaud's Change from Baseline Q3” value (participants with SSc-RP [1]; tadalafil 5 mg) was −0.150, the “VAS Raynaud's Day 12 Max” value (participants with SSc-RP [1]; tadalafil 5 mg) was 9.20 and the “VAS Raynaud's Day 12 Median” value (participants with SSc-RP [1]; tadalafil 5 mg) was 5.200. For the same compound, the “VAS Raynaud's Day 12 Min” value (participants with SSc-RP [1]; tadalafil 5 mg) was 0.20, the “VAS Raynaud's Day 12 Q1” value (participants with SSc-RP [1]; tadalafil 5 mg) was 2.200 and the “VAS Raynaud's Day 12 Q3” value (participants with SSc-RP [1]; tadalafil 5 mg) was 7.700. For the same compound, the “VAS Raynaud's Percent Change from Baseline Max” value (participants with SSc-RP [1]; tadalafil 5 mg) was −3.1%, the “VAS Raynaud's Percent Change from Baseline Mean” value (participants with SSc-RP [1]; tadalafil 5 mg) was −19.71% and the “VAS Raynaud's Percent Change from Baseline Median” value (participants with SSc-RP [1]; tadalafil 5 mg) was −20.67%. The “VAS Raynaud's Percent Change from Baseline Min” value (participants with SSc-RP [1]; tadalafil 5 mg) was −34.4%, the “VAS Raynaud's Percent Change from Baseline Q1” value (participants with SSc-RP [1]; tadalafil 5 mg) was −33.85% and the “VAS Raynaud's Percent Change from Baseline Q3” value (participants with SSc-RP [1]; tadalafil 5 mg) was −5.56%. The “Worst AE (group)” value (participants with SSc-RP [2]) was “Worst AE in tadalafil”.

Source: patent US20240358692A1, “TREATMENT OF SCLERODERMA” (Aisa Pharma, Inc., priority 2023, published 2024)
